Reference: PubChem BioAssay AID330 (DTP/NCI, 2004)
Several values for one entry are separate records, joined by “and”; a condition that tells them apart may be missing. Equal entries are not always repeated. Toxic doses and inconclusive results are not listed. The calls were made as follows: active = survival T/C of 150% or more; inactive = T/C below 125% in these data.

Test system: P388 leukemia ip, CD2F1 mice, survival T/C
Experiment: NCI In Vivo Anticancer Drug Screen. Data for tumor model P388 Leukemia (intraperitoneal) in CD2F1 (CDF1) mice
Conditions: endpoint: median survival time, higher = longer survival
In short: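 Mice carrying the transplanted tumor received test compound or vehicle. Survival was recorded in each group, and the value is the treated-group measurement divided by that of the vehicle-treated control group.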

[1] = dose: 50.0 mg/kg/injection, schedule: Q01DX009 (ip), vehicle: saline with Tween-80
[2] = dose: 100.0 mg/kg/injection, schedule: Q01DX009 (ip), vehicle: saline with Tween-80
[3] = dose: 200.0 mg/kg/injection, schedule: Q01DX009 (ip), vehicle: saline with Tween-80
[4] = dose: 50.0 mg/kg/injection, schedule: Q01DX009 (ip), vehicle: saline
[5] = dose: 100.0 mg/kg/injection, schedule: Q01DX009 (ip), vehicle: saline
[6] = dose: 200.0 mg/kg/injection, schedule: Q01DX009 (ip), vehicle: saline
[7] = dose: 50.0 mg/kg/injection, schedule: Q01DX005 (ip), vehicle: Klucel (hydroxypropylcellulose) (HPC)
[8] = dose: 100.0 mg/kg/injection, schedule: Q01DX005 (ip), vehicle: Klucel (hydroxypropylcellulose) (HPC)
[9] = dose: 200.0 mg/kg/injection, schedule: Q01DX005 (ip), vehicle: Klucel (hydroxypropylcellulose) (HPC)
[10] = dose: 50.0 mg/kg/injection, schedule: Q01DX009 (ip), vehicle: Klucel (hydroxypropylcellulose) (HPC)
[11] = dose: 100.0 mg/kg/injection, schedule: Q01DX009 (ip), vehicle: Klucel (hydroxypropylcellulose) (HPC)
[12] = dose: 200.0 mg/kg/injection, schedule: Q01DX009 (ip), vehicle: Klucel (hydroxypropylcellulose) (HPC)
[13] = dose: 25.0 mg/kg/injection, schedule: Q01DX009 (ip), vehicle: Klucel (hydroxypropylcellulose) (HPC)
[14] = dose: 50.0 mg/kg/injection, schedule: Q01DX005 (ip), vehicle: saline with Tween-80
[15] = dose: 100.0 mg/kg/injection, schedule: Q01DX005 (ip), vehicle: saline with Tween-80
[16] = dose: 200.0 mg/kg/injection, schedule: Q01DX005 (ip), vehicle: saline with Tween-80
[17] = dose: 60.0 mg/kg/injection, schedule: Q01DX005 (ip), vehicle: saline with Tween-80
[18] = dose: 120.0 mg/kg/injection, schedule: Q01DX005 (ip), vehicle: saline with Tween-80

Measured: T/C

COC1OC2COC(c3ccccc3)OC2C(O)C1O (centres undefined)
inactive: [1] 100 % of control | [2] 107 % of control | [3] 105 % of control | dose: 400.0 mg/kg/injection, schedule: Q01DX009 (ip), vehicle: saline with Tween-80 107 % of control

OCC1(CO)COC2(CCCCC2)N1
inactive: [4] 107 % of control | [5] 101 % of control and 120 % of control | [6] 100 % of control and 124 % of control

O=C(CC(c1ccccc1Cl)C(C(=O)O)c1ccccc1)c1ccccc1 (centres undefined)
inactive: [7] 100 % of control | [8] 91 % of control | [9] 99 % of control

CCCCCCCCCCCCCCCC[N+](C)(C)C(C)c1ccccc1 (centres undefined)
inactive: dose: 0.78 mg/kg/injection, schedule: Q04DX003 (ip), vehicle: saline with Tween-80 104 % of control and 106 % of control | dose: 1.56 mg/kg/injection, schedule: Q04DX003 (ip), vehicle: saline with Tween-80 116 % of control and 118 % of control | dose: 6.25 mg/kg/injection, schedule: Q04DX003 (ip), vehicle: saline with Tween-80 117 % of control

CC(=O)Oc1c(C)c(C)c2c(c1C)C(I)CC(C)(CCC(C)CCC(C)CCC(C)C)O2 (centres undefined)
inactive: dose: 12.5 mg/kg/injection, schedule: Q01DX009 (ip), vehicle: saline + Tween-80 + alcohol 103 % of control | dose: 25.0 mg/kg/injection, schedule: Q01DX009 (ip), vehicle: saline + Tween-80 + alcohol 113 % of control | dose: 50.0 mg/kg/injection, schedule: Q01DX009 (ip), vehicle: saline + Tween-80 + alcohol 107 % of control | dose: 100.0 mg/kg/injection, schedule: Q01DX009 (ip), vehicle: saline + Tween-80 + alcohol 106 % of control | dose: 200.0 mg/kg/injection, schedule: Q01DX009 (ip), vehicle: saline + Tween-80 + alcohol 119 % of control | dose: 400.0 mg/kg/injection, schedule: Q01DX009 (ip), vehicle: saline + Tween-80 + alcohol 87 % of control

CCCCCCCCCCC(=O)C(=O)c1ccc(O)c(C)c1O
inactive: [10] 100 % of control | [11] 99 % of control | [12] 110 % of control

O=C1NC(=O)C(=Cc2ccc([N+](=O)[O-])cc2)C(=O)N1
inactive: [7] 107 % of control | [8] 99 % of control | [9] 104 % of control

CC1(C)OCC(C2OC3OC(C)(C)OC3C2(O)/C(N)=N/O)O1 (centres undefined)
inactive: dose: 100.0 mg/kg/injection, schedule: Q04DX002 (ip), vehicle: saline 103 % of control | dose: 200.0 mg/kg/injection, schedule: Q04DX002 (ip), vehicle: saline 112 % of control | dose: 400.0 mg/kg/injection, schedule: Q04DX002 (ip), vehicle: saline 122 % of control

C=C1CC/C=C(\C)CCC2C1CC2(C)C (centres undefined)
inactive: dose: 12.5 mg/kg/injection, schedule: Q01DX009 (ip), vehicle: Klucel (hydroxypropylcellulose) (HPC) 100 % of control | [13] 100 % of control | [10] 102 % of control | [11] 105 % of control | [12] 113 % of control

N#CC1(NO)CCCC1
inactive: [4] 94 % of control | [5] 98 % of control | [6] 89 % of control

C=C1C(=O)OC2C1C(OC(=O)/C(C)=C/C)CC1(COC(O)C1)C2C(=C)C (centres undefined)
inactive: dose: 2.5 mg/kg/injection, schedule: Q01DX009 (ip), vehicle: saline + alcohol 107 % of control | dose: 5.0 mg/kg/injection, schedule: Q01DX009 (ip), vehicle: saline + alcohol 118 % of control | dose: 10.0 mg/kg/injection, schedule: Q01DX009 (ip), vehicle: saline + alcohol 109 % of control | dose: 20.0 mg/kg/injection, schedule: Q01DX009 (ip), vehicle: saline + alcohol 100 % of control

N#CC1Oc2ccccc2N1C(=O)c1ccccc1 (centres undefined)
inactive: [14] 101 % of control | [15] 102 % of control | [16] 90 % of control

O=C1c2ccccc2C(=O)c2c(NCC3CCCN4CCCCC34)cccc21 (centres undefined)
inactive: [7] 100 % of control | [8] 98 % of control | [9] 100 % of control

CS/C(=C/c1ccc2ccccc2[n+]1C)N1CCOCC1
inactive: dose: 6.25 mg/kg/injection, schedule: Q01DX005 (ip), vehicle: saline with Tween-80 105 % of control and 107 % of control and 108 % of control | dose: 12.5 mg/kg/injection, schedule: Q01DX005 (ip), vehicle: saline with Tween-80 103 % of control and 105 % of control and 119 % of control | dose: 25.0 mg/kg/injection, schedule: Q01DX005 (ip), vehicle: saline with Tween-80 110 % of control (2×) and 121 % of control

CCC1C2Cc3ccc(O)cc3C1(C)CCN2 (centres undefined)
inactive: dose: 60.0 mg/kg/injection, schedule: Q01DX005 (ip), vehicle: saline 95 % of control | dose: 120.0 mg/kg/injection, schedule: Q01DX005 (ip), vehicle: saline 98 % of control

N#Cc1c(C(=O)NOCCCc2ccccc2)cc(-c2ccc(F)cc2)[nH]c1=O
inactive: [17] 107 % of control | [18] 103 % of control

CCNC(=O)CCC(NS(=O)(=O)c1ccc(NC(C)=O)cc1)C(=O)O (centres undefined)
inactive: dose: 100.0 mg/kg/injection, schedule: Q04DX002 (ip), vehicle: Klucel (hydroxypropylcellulose) (HPC) 91 % of control | dose: 200.0 mg/kg/injection, schedule: Q04DX002 (ip), vehicle: Klucel (hydroxypropylcellulose) (HPC) 107 % of control | dose: 400.0 mg/kg/injection, schedule: Q04DX002 (ip), vehicle: Klucel (hydroxypropylcellulose) (HPC) 92 % of control

CNC(=O)Nc1ccccc1C(=O)NN
inactive: [13] 100 % of control | [10] 109 % of control | [11] 105 % of control | [12] 96 % of control

C=C(C(=O)O)C(N)C(=O)O (centres undefined)
inactive: dose: 25.0 mg/kg/injection, schedule: Q01DX005 (ip), vehicle: saline 98 % of control | dose: 50.0 mg/kg/injection, schedule: Q01DX005 (ip), vehicle: saline 98 % of control | dose: 100.0 mg/kg/injection, schedule: Q01DX005 (ip), vehicle: saline 112 % of control | dose: 200.0 mg/kg/injection, schedule: Q01DX005 (ip), vehicle: saline 97 % of control | dose: 400.0 mg/kg/injection, schedule: Q01DX005 (ip), vehicle: saline 96 % of control

CC(C)(Oc1ccc(C(=O)c2ccc(Cl)cc2)cc1)C(=O)O
inactive: [1] 93 % of control | [2] 102 % of control | [3] 111 % of control

Nc1nnc(Cc2nnc(N)o2)o1
inactive: [14] 101 % of control | [15] 101 % of control | [16] 98 % of control

CC(=O)ON(C(=O)c1ccccc1)c1ccccc1
inactive: [17] 104 % of control | [18] 102 % of control | dose: 240.0 mg/kg/injection, schedule: Q01DX005 (ip), vehicle: saline with Tween-80 99 % of control
